From patent US20260085062A1, “NOVEL COMPOUNDS AS CK2 INHIBITORS” (Cambridge Enterprise Limited, priority 2022, published 2026) come the findings set out here.

One assay concerns the target T1, intracellular CK2α (Homo sapiens, UniProt P19784).
T1 construct: host or cells: HCT116 (ATCC CCL-247)
Kind of assay: Cell-based NanoBRET assay for inhibitor binding to intracellular CK2α. The note with it: HCT116 cells transiently transfected with CSNK2A2-NanoLuc fusion vector; Tracer K-5; 2 h; read-out: Assay 3: NanoBRET ™ assay for binding to intracellular CK2α. As for the experimental part:
This assay used the NanoBRET™ System (Promega), an energy transfer technique designed to measure molecular proximity in living cells. The assay measured the apparent affinity of test compounds by competitive displacement of a NanoBRET™ tracer reversibly bound to a NanoLucR luciferase CK2α fusion protein in cells. A fixed concentration of tracer was added to cells expressing the desired NanoLucR-CK2α fusion protein to generate a BRET reporter complex. […] Donor emission wavelength (450 nm) and acceptor emission wavelength (610 nm or 630 nm) were measured on the Envision (Perkin-Elmer) and BRET ratio calculated for data analysis: BRET Ratio=(Acceptorsample/Donorsample)×1,000. • 7.
On the technique in general: BRET reads energy transfer from a luciferase to a nearby fluorophore.

For the next assay, the target named is T2, CK2α (Homo sapiens, UniProt P68400).
T2 construct: CK2α (residues 2-329) was produced in Escherichia coli BL21 (DE3) for kinase activity screening; His6 (N, cleaved yes); made in house; host or cells: Escherichia coli BL21 (DE3)
T2 sequence (P68400 2-329): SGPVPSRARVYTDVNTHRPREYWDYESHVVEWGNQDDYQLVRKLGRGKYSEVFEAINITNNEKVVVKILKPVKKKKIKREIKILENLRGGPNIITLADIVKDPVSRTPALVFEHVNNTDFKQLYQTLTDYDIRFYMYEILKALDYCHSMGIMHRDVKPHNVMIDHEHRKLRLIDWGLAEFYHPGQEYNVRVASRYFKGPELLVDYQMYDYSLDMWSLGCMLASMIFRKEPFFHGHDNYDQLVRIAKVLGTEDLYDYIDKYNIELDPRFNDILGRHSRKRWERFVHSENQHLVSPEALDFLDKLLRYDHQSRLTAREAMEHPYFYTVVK
The assay can be described thus: Biochemical assay for inhibitors of CK2α kinase activity (ADP-Glo). The conditions noted are these: 0.2 nM CK2α, 50 μM peptide substrate, 15 μM ATP, read-out: Assay 1: CK2α Enzyme IC50. As for the experimental part: The inhibitory activity of putative kinase inhibitors and the potency of selected compounds were determined using ADP-Glo™ assay. The kinase reaction was performed in the presence of excess peptide substrate and ATP at a concentration equivalent to Km. Upon termination of the kinase reaction, remaining ATP was depleted leaving only ADP reaction product, which was converted back to ATP with a coupled luciferin/luciferase reaction. The luminescent output from the coupled reaction was quantified and correlated with the kinase activity. […] Single colonies of the cells were grown in 6×1 L of 2×TY with 100 μg/mL ampicillin at 37° C. […] The cells were incubated overnight at 25° C. then harvested by centrifugation at 4,000 g for 20 minutes. The cell pellets were suspended in 20 mM Tris, 500 mM NaCl, pH 8.0 and lysed using a high pressure homogenizer. Protease inhibitor cocktail tablets (one tablet per 50 mL extract; Roche Diagnostics) and DNase I were then added. The crude cell extract was then centrifuged at 10,000 g for 45 minutes, the supernatant was filtered with a 0.22 μm filter. The soluble supernatant was applied on a Ni Sepharose Fast Flow6 column at pH 8.0, washed and eluted in 20 mM Tris pH 8.0, 500 mM NaCl, 200 mM imidazole. […] The cleaved protein was further purified on a Sepharose Q HP anion-exchange column and the main peak fraction from this column was further purified by gel filtration on a Superdex 75 16/60 HiPrep column equilibrated with Tris 20 mM, pH 8.0, 500 mM NaCl. Pure protein was concentrated to 15 mg/mL and flash frozen in liquid nitrogen. […] The assay was conducted as follows: • 1. […] After 120 minutes, the reaction was stopped by addition of 5 pl ADP-Glo reagent (Promega V9102) and the plate incubated at RT for a further 60 minutes. • 5. 10 μL of Kinase Detection reagent (Promega V9102) was added to assay plate and incubated for a further 30 minutes prior to reading luminescence on an Envision (Perkin-Elmer). Data was analysed to calculate compound IC50and Ki as follows: • 1. […] Percent activity was calculated for each well using: (Test well reading−MEAN100%inhibition control wells)/(MEAN0% inhibition control wells−MEAN100%inhibition control wells). • 5. Morrison Ki was determined using Morrison Ki equation (XL-fit).
For orientation: In ADP-Glo the light output rises with the ADP produced.

A further assay concerns the target T3, CLK2 (Homo sapiens, UniProt P49760).
T3 construct: purchased Carna Biosciences 04-127
The assay can be described thus: Biochemical assay for inhibitors of CLK2 kinase activity (ADP-Glo). The conditions noted are these: 20 nM CLK2, 50 μM peptide substrate, 100 μM ATP, read-out: Assay 2: CLK2 Enzyme IC50. As for the experimental part:
The inhibitory activity of putative kinase inhibitors and the potency of selected compounds were determined using ADP-GloTM assay. The kinase reaction was performed in the presence of excess peptide substrate and ATP at a concentration equivalent to Km. Upon termination of the kinase reaction, remaining ATP was depleted leaving only ADP reaction product, which was converted back to ATP with a coupled luciferin/luciferase reaction. The luminescent output from the coupled reaction was quantified and correlated with the kinase activity. […] The assay was conducted as follows: • 1. […] After 120 minutes, the reaction was stopped by addition of 5 pl ADP-Glo reagent (Promega V9102) and the plate incubated at RT for a further 60 minutes. • 5. 10 μL of Kinase Detection reagent (Promega V9102) was added to assay plate and incubated for a further 30 minutes prior to reading luminescence on an Envision (Perkin-Elmer). Data was analysed to calculate compound IC50and Ki as follows: • 1. […] Morrison Ki was determined using Morrison Ki equation (XL-fit).

T3 sequence (P49760 whole entry): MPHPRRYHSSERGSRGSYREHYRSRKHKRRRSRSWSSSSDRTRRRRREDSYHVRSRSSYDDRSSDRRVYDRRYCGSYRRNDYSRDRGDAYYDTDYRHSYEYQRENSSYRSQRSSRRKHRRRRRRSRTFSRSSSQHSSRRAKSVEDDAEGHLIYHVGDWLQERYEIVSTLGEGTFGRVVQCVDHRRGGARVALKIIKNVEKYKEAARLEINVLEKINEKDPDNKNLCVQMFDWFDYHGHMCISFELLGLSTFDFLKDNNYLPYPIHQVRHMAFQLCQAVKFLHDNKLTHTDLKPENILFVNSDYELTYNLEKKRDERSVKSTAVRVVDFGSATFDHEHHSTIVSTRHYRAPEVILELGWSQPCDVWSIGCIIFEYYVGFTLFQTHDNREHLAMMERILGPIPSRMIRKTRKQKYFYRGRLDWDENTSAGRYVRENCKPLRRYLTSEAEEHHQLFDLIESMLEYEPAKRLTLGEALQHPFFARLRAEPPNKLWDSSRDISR
T1 sequence (P19784 whole entry): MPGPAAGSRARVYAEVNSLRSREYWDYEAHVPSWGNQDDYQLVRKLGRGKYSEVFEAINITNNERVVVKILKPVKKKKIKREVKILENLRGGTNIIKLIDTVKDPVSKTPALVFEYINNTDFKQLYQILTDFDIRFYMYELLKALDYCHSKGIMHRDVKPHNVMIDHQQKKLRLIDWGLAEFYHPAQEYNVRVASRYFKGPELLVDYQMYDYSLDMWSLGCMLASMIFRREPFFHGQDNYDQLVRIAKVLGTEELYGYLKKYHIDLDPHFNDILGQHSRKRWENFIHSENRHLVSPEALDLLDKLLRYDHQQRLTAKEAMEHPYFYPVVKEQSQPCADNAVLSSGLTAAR

Consider `FC(F)(F)Oc1ccc(CNCCc2nnc(CCNc3cc(-n4cnnc4)cc4[nH]ncc34)[nH]2)cc1Cl` [Example 16, N-(2-(5-(2-((3-chloro-4-(trifluoromethoxy)benzyl)amino)ethyl)-4H-1,2,4-triazol-3-yl)ethyl)-6-(4H-1,2,4-triazol-4-yl)-1H-indazol-4-amine], for which the IC50 at intracellular CK2α was 3400 nM; on CK2α it was 14.1 nM; at CLK2 it was 371 nM.

Take `O=C(CNCCCCNCc1ccc(OC(F)(F)F)c(Cl)c1)Nc1cc(-n2cnnc2)cc2[nH]ncc12` [Example 17, N-(6-(4H-1,2,4-triazol-4-yl)-1H-indazol-4-yl)-2-((4-((3-chloro-4-(trifluoromethoxy)benzyl)amino)butyl)amino)acetamide]: the results for the IC50 at intracellular CK2α, on CK2α and at CLK2 were 3840 nM, 8.26 nM and 2780 nM, respectively.

On to `O=C(CCNCc1ccc(OC(F)(F)F)c(Cl)c1)NCCC(=O)Nc1cc(-n2cnnc2)cc2[nH]ncc12` [Example 18, N-(6-(4H-1,2,4-triazol-4-yl)-1H-indazol-4-yl)-3-(3-((3-chloro-4-(trifluoromethoxy)benzyl)amino)propanamido)propanamide], for which the figures for the IC50 on intracellular CK2α, at CK2α and on CLK2 were 4420 nM, 2.81 nM and 1620 nM, respectively.

In the case of `O=C(CCNCc1ccc(OC(F)(F)F)c(Cl)c1)NCCCOc1cc(-n2cnnc2)cc2[nH]ncc12` [Example 19, N-(3-((6-(4H-1,2,4-triazol-4-yl)-1H-indazol-4-yl)oxy)propyl)-3-((3-chloro-4-(trifluoromethoxy)benzyl)amino)propanamide], the IC50 worked out at 5070 nM on intracellular CK2α, 3.13 nM at CK2α and 574 nM on CLK2.

Regarding `CN(CCCNc1cc(-n2cnnc2)cc2[nH]ncc12)C(=O)CCNCc1ccc(OC(F)(F)F)c(Cl)c1` [Example 20, N-(3-((6-(4H-1,2,4-triazol-4-yl)-1H-indazol-4-yl)amino)propyl)-3-((3-chloro-4-(trifluoromethoxy)benzyl)amino)-N-methylpropanamide], the IC50 was determined as 3300 nM on intracellular CK2α, 23.5 nM at CK2α and 158 nM at CLK2.

As for `Cc1cc(-c2cc(NCCCNC(=O)CCNCc3ccc(-c4ccccc4)c(Cl)c3)c3cn[nH]c3c2)ccn1` [Example 21, 3-(((2-Chloro-[1,1′-biphenyl]-4-yl)methyl)amino)-N-(3-((6-(2-methylpyridin-4-yl)-1H-indazol-4-yl)amino)propyl)propanamide], the IC50 on intracellular CK2α was found to be 346 nM; on CK2α it was 2.93 nM; on CLK2, 446 nM.

For `COc1cc(-c2cc(NCCCNC(=O)CCNCc3ccc(-c4ccccc4)c(Cl)c3)c3cn[nH]c3c2)ccn1` [Example 22, 3-(((2-Chloro-[1,1′-biphenyl]-4-yl)methyl)amino)-N-(3-((6-(2-methoxypyridin-4-yl)-1H-indazol-4-yl)amino)propyl)propanamide], the IC50 at intracellular CK2α amounted to 363 nM; at CK2α, 1.35 nM; on CLK2, 1120 nM.

In the case of `Clc1ccc2nc(CNCCCCOCCNc3cc(-n4cnnc4)cc4[nH]ncc34)[nH]c2c1` [Example 23, N-(2-(4-(((6-chloro-1H-benzo[d]imidazol-2-yl)methyl)amino)butoxy)ethyl)-6-(4H-1,2,4-triazol-4-yl)-1H-indazol-4-amine], the IC50 amounted to 17500 nM on intracellular CK2α, 19.9 nM on CK2α and 86.1 nM at CLK2.

`FC(F)(F)Oc1ccc(CNCCCCNCCNc2cc(-n3cnnc3)cc3[nH]ncc23)cc1Cl` [Example 24, N^1-(2-((6-(4H-1,2,4-triazol-4-yl)-1H-indazol-4-yl)amino)ethyl)-N^4-(3-chloro-4-(trifluoromethoxy)benzyl)butane-1,4-diamine]: the IC50 came to 591 nM on intracellular CK2α, 0.78 nM at CK2α and 344 nM at CLK2.

With `O=C(CCNCc1ccc(-c2ccccc2)c(Cl)c1)NCCCNc1cc(-c2cn[nH]n2)cc2[nH]ncc12` [Example 25, N-(3-((6-(2H-1,2,3-triazol-4-yl)-1H-indazol-4-yl)amino)propyl)-3-(((2-chloro-[1,1′-biphenyl]-4-yl)methyl)amino)propanamid], the IC50 at intracellular CK2α was found to be 93.6 nM; at CK2α, 0.44 nM; at CLK2, 18.2 nM.

Take `O=C(CCNCc1ccc(-c2ccccc2)c(Cl)c1)NCCCNc1cc(-c2cccnc2)cc2[nH]ncc12` [Example 26, 3-(((2-chloro-[1,1'-biphenyl]-4-yl)methyl)amino)-N-(3-((6-(pyridin-3-yl)-1H-indazol-4-yl)amino)propyl)propanamide]: the IC50 at intracellular CK2α is 875 nM; on CK2α, 20.4 nM; on CLK2 it was 4460 nM.

Regarding `Cc1n[nH]cc1-c1cc(NCCCNC(=O)CCNCc2ccc(-c3ccccc3)c(Cl)c2)c2cn[nH]c2c1` [Example 27, 3-(((2-chloro-[1,1′-biphenyl]-4-yl)methyl)amino)-N-(3-((6-(3-methyl-1H-pyrazol-4-yl)-1H-indazol-4-yl)amino)propyl)propanamide], the IC50 at intracellular CK2α worked out at 322 nM; at CK2α, 0.95 nM; at CLK2 it was 56.4 nM.

With `O=C(CCNCc1ccc(-c2ccccc2)c(Cl)c1)NCCCNc1cc(-c2cnoc2)cc2[nH]ncc12` [Example 28, 3-(((2-chloro-[1,1′-biphenyl]-4-yl)methyl)amino)-N-(3-((6-(isoxazol-4-yl)-1H-indazol-4-yl)amino)propyl)propanamide], the IC50 came to 70.6 nM on intracellular CK2α, 0.54 nM at CK2α and 107 nM at CLK2.

For `Cc1cn(-c2cc(NCCCNC(=O)CCNCc3ccc(-c4ccccc4)c(Cl)c3)c3cn[nH]c3c2)cn1` [Example 29, 3-(((2-chloro-[1,1′-biphenyl]-4-yl)methyl)amino)-N-(3-((6-(4-methyl-1H-imidazol-1-yl)-1H-indazol-4-yl)amino)propyl)propanamide], the figures for the IC50 at intracellular CK2α, on CK2α and at CLK2 were 2090 nM, 22.1 nM and 649 nM, respectively.

As for `O=C(CCNCc1ccc(-c2ccccc2)c(Cl)c1)NCCCNc1cc(-c2cc[n+]([O-])cc2)cc2[nH]ncc12` [Example 30, 4-(4-((3-(3-(((2-chloro-[1,1′-biphenyl]-4-yl)methyl)amino)propanamido)propyl)amino)-1H-indazol-6-yl)pyridine 1-oxide], the IC50 on intracellular CK2α was 816 nM; at CK2α, 0.99 nM; at CLK2, 2560 nM.
